From patent US9145376B2, “Quinazolinone inhibitors of dynein” (The Rockefeller University, priority 2011, dated 2015)

Key:
Xenopus melanophores = test: Melanosome aggregation assay; assay type: cell-based; details: for melanosome aggregation: melatonin-induced aggregation
From the text: Another cytoplasmic dynein 1-dependent process is the aggregation of melanin-containing vesicles in pigment cells, the mechanism by which certain organisms adapt their coloration in response to environmental cues. For example, cytoplasmic dynein 1 transports melanosomes toward the center of Xenopus melanophores stimulated with the small-molecule melatonin, counterbalancing the kinesin-2- and myosin-V-driven dispersal of these pigment granules toward the cell periphery in response to melanocyte-stimulating hormone (MSH). To determine if melanosome trafficking is sensitive to the ciliobrevins, we cultured Xenopus melanophores with MSH to uniformly disperse their melanosomes and then treated them with melatonin and various concentrations of test compounds.
Immortalized Xenopus melanophores were cultured in 0.7×L15 medium supplemented with 10% fetal bovine serum, 30 mg/L L-glutamine, and 5 mg/L insulin. The cell were cultured on poly-D-lysine-coated coverslips in 12-well plates for 12 to 24 hours prior to the melanosome aggregation assay. On the day of the experiment, the melanophores were cultured in serum-free medium for 30 minutes, stimulated with 100 nM melanocyte-stimulating hormone (MSH) to uniformly disperse the melanosomes, and then incubated with medium containing individual compounds or DMSO for 10 minutes. Melanosome aggregation was then induced by treating the cells with 10 nM melatonin in the presence of the test compound. The melanophores were either imaged immediately by time-lapse microscopy or fixed after 30 minutes with 0.7×PBS containing 4% paraformaldehyde.
The cells were then washed several times with medium containing melatonin alone and imaged.

[1] = system: Gli3 processing in Shh-EGFP cells; test: Quantitative assessment of Hh ligand-dependent Gli3 processing; assay type: cell-based; details: Shh-EGFP cells stimulated with Shh-N, 16 hours
Method: Shh-EGFP cells were seeded into 12-well plate at a density of 120,000 cells/well in DMEM containing 10% calf serum. 100 U/mL penicillin, and 0.1 mg/mL streptomycin. After being cultured for 24 hours, the cells were transferred into DMEM containing 0.5% calf serum, 10% Shh-conditioned medium, the antibiotics described above, and either individual compounds or DMSO. The cells were cultured for an additional 16 hours, washed with PBS, and then lysed by incubation on ice with SDS-PAGE loading buffer composed of 8% glycerol, 20 mM Tris-HCl, pH 6.8, 2% SDS, 100 mM DTT, 1 mM PMSF, 20 mM NaF, 2 mM Na3VO4, and an EDTA-free protease inhibitor cocktail (Roche). The lysed samples were heated to 100° C. for 7 minutes, loaded onto 3-8% Criterion XT Tris-Acetate polyacrylamide gels (Bio-Rad), electrophoresed in XT Tricine buffer (Bio-Rad), and transferred onto PVDF membranes. The membranes were dehydrated with methanol and probed overnight at 4° C. with goat polyclonal anti-Gli3 antibody (0.4 μg/mL: R & D Systems, AF3690) in PBS containing 4% non-fat dry milk and 0.1% Tween-20 (immunoblot blocking buffer). The blots were then washed 4×1 minutes in PBS and incubated with horseradish peroxidase-conjugated bovine polyclonal anti-goat IgG antibody (0.04 μg/mL, Jackson ImmunoResearch, 805-035-180) in immunoblot blocking buffer for 1 hour at room temperature. The membranes were next washed 4×1 minutes in PBS and visualized using SuperSignal West Dura Extended Duration substrate (Thermo Scientific) and a ChemiDoc XRS imaging system (Bio-Rad). Band intensities of Gli3FL and Gli3R where quantified using Quantity One software (Bio-Rad), and five independent experiments were used to determine the average Gli3FL/Gli3R ratio for each compound.

[2] = target: T1, K560, N-terminal fragment of human conventional kinesin (kinesin-1) (Homo sapiens, UniProt P33176); test: Microtubule surface gliding assay, K560/kinesin-1; assay type: biochemical; details: 100 μM
T1 construct: K560, a 560-amino acid N-terminal fragment of human conventional kinesin (kinesin-1); His-tag (C); made in house; host or cells: bacteria
T1 sequence (P33176 1-560): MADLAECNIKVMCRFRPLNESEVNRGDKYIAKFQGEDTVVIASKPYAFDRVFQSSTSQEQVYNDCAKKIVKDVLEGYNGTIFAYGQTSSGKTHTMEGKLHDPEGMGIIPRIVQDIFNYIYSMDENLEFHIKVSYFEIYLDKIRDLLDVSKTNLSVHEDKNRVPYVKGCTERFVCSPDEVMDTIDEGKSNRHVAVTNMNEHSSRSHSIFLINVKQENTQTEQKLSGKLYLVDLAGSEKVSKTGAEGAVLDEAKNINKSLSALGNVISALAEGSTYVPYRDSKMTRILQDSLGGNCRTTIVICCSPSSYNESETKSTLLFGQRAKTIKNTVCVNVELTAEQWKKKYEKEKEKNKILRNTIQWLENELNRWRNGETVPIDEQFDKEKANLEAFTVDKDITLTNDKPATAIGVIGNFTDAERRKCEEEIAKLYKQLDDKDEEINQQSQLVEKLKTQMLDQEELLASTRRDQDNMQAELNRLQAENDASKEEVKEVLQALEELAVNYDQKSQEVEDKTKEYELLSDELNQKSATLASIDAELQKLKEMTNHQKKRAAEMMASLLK
Method: Cytoplasmic dynein was purified from bovine brains as described by Bingham et al. [Methods Enzymol. 298, 171 (1998)]. K560, a 560-amino acid N-terminal fragment of human conventional kinesin (kinesin-1) with a C-terminal His-tag, was expressed in bacteria and purified as described by Woehlke et al., [Cell 90, 207 (1997)]. Motility assays were performed on a Zeiss Axiovert 200M wide-field microscope equipped with a Zeiss 100×/1.45 NA α-Plan-Fluar objective. Data were captured with an EM-CCD camera (iXon DU-897, Andor Technology) with a 0.3-second exposure time and frame rate of 0.5 second^−1. Microtubule gliding assays were performed as described by Kapoor and Mitchison [Proc. Natl. Acad. Sci. U.S.A. 96, 9106 (1999)] with some modifications. An approximately 6 μL flow chamber was filled with motor protein (100 μg/mL dynein or 50 μg/mL K560) in motor dilution buffer (80 mM Pipes, 1 mM EGTA, 2 mM MgCl2, 2 mM DTT, 50 μM ATP, pH 6.8 with KOH). […] After allowing the microtubules to bind to the surface for 5 minutes, the gliding microtubules were visualized by time-lapse fluorescence microscopy. Velocities were measured by kymography using Metamorph software (Molecular Devices), and the velocity for each microtubule was determined from the total distance during the time observed.

For `N#C/C(C(=O)c1ccccc1)=C1\NC(=O)c2ccccc2N1` [Example 16, 3-oxo-2-(4-oxo-3,4-dihydroquinazolin-2(1H)-ylidene)-3-phenylpropanenitrile], the melanosome aggregation (Xenopus melanophores; concentrations up to 40 μM) was “no discernible effect”.
For `N#C/C(C(=O)c1ccc(Cl)cc1Cl)=C1\NC(=O)c2ccc(Cl)cc2N1` [Example 31, 2-(7-chloro-4-oxo-3,4-dihydroquinazolin-2(1H)-ylidene)-3-(2,4-dichlorophenyl)-3-oxo-propanenitrile], the Gli3FL/Gli3R ratio [1] was “altered the Gli3FL/Gli3R ratio”, the “Shh-N-dependent Gli3FL phosphorylation” value [1] was “reduced” and the melanosome aggregation (Xenopus melanophores; 10 μM dose) was “significantly inhibited melanosome aggregation”. For the same molecule, the “reversibility of effect on melanosome aggregation (washout)” value (Xenopus melanophores; washout into medium containing melatonin alone) was “completely reversible” and the K560/kinesin-1-dependent microtubule gliding [2] was “Neither ciliobrevin significantly affected”.
For `N#C/C(C(=O)c1ccc(Cl)cc1Cl)=C1\NC(=O)c2ccccc2N1` [Example 1, 3-(2,4-dichlorophenyl)-3-oxo-2-(4-oxo-3,4-dihydroquinazolin-2(1H)-ylidene)propanenitrile], the Gli3FL/Gli3R ratio [1] was “altered the Gli3FL/Gli3R ratio”, the “Shh-N-dependent Gli3FL phosphorylation” value [1] was “reduced” and the K560/kinesin-1-dependent microtubule gliding [2] was “Neither ciliobrevin significantly affected”.
